# Source: US11559586B2, “Nanoparticles for treatment of choroidal neovascularization and other indications” (Children's Medical Center Corporation, priority 2018, dated 2023)
# System: laser-induced choroidal neovascularization
# Assay: Therapeutic study in laser-induced choroidal neovascularization model, CNV neovessel area
# Format: in vivo, C57BL/6 mice
# Details: free drug, IV day 1, 3, 5; equal dose of doxorubicin
# Description: Therapeutic effects of phototriggered activation of nanoparticles in CNV. The mouse model of laser-induced choroidal neovascularization mimics the neovascular aspect of wet AMD, and has been used extensively in studies of that disease. However, unlike the chronic development of wet AMD in human, the laser-induced mouse CNV model is acute—the optimum time point to assess neovessels in this model is between day 7 and day 14. After 14 to 21 days, spontaneous regression begins and lesion size decreases. The dosing regimen in this example was determined accordingly: treatment was initiated on day 7 when the lesions had formed, and its effects were assessed before spontaneous regression would begin on day 14.
# In the in vivo therapeutic study, 200 microliters of PBS containing 1 mg of NP-[CPP]-doxo encapsulating 0.02 mg doxorubicin were injected via tail vein one week after photocoagulation (day 1 of treatment), and additional injections were given on day 3 and day 5. […] (The three drug-loaded groups contained equal doses of doxorubicin.) On day 7, mice were euthanized, the size of CNV lesions were assessed by fluorescent imaging of choroidal flat-mounts stained with isolectin GS-IB4 (which labels endothelial cells). […]
structure (smiles),measurement,value
COc1cccc2c1C(=O)c1c(O)c3c(c(O)c1C2=O)C[C@@](O)(C(=O)CO)C[C@@H]3O[C@H]1C[C@H](N)[C@H](O)[C@H](C)O1 [doxorubicin],reduction in neovessel area compared to PBS group,26.8%
